Test results: US11976068B2 (CHIMERIX, INC., priority 2015, dated 2024)

Experiments:
[1] = Phase I trial, safety and toxicity assessment
[2] = test system: cleaved cytokeratin 18 (cCK18); experiment: Phase I trial, serum M30 assay; assay type: in vivo, human
Protocol: Serum levels of cleaved cytokeratin 18 (cCK18) were assessed using the M30 assay and serum levels of total cytokeratin 18 (CK18) were assessed using the M65 assay (Perviva A.B., Sweden). Assessments of other tumor-specific markers were also evaluated per standard of care.
Given the heterogeneity of the tumor types in the enrolled patients, no widely used biomarker was available to uniformly assay all patient samples. In particular, the serum M30 assay is able to detect a caspase-cleaved form of cytokeratin-18 that occurs during apoptosis, which is useful in a heterogeneous study of solid tumors because most solid tumors express cytokeratin-18. The M30 sandwich ELISA has been used extensively in clinical trials as biomarkers of cell death induced by a variety of different cancer chemotherapeutic agents in a spectrum of different solid tumors. In addition to the serum M30 assay, the M65 sandwich ELISA assay, which has also been used in clinical studies to detect increases in total cytokeratin 18 that can occur with tumor necrosis and disease progression, was used to differentiate tumor apoptosis from necrosis.

TRAIL = experiment: Phase I trial, serum TRAIL ELISA; assay type: in vivo, human
[3] = Pat # 1, NSCLC, 125 mg every three weeks, dose escalation phase
[4] = Pat # 2, Appendiceal adenocarcinoma, 250 mg every three weeks, dose escalation phase
[5] = Pat # 3, Uterine cancer, 375 mg every three weeks, dose escalation phase
[6] = Pat # 4, Renal cancer, 500 mg every three weeks, dose escalation phase
[7] = Pat # 5, Breast cancer, 625 mg every three weeks, dose escalation phase
[8] = Pat # 6, Prostate adenocarcinoma, 625 mg every three weeks, dose escalation phase
[9] = Pat # 7, Small cell lung cancer, 625 mg every three weeks, dose escalation phase
[10] = Pat # 8, Colon adenocarcinoma, 625 mg every three weeks, dose escalation phase
[11] = Pat # 9, Spindle cell sarcoma, 625 mg every three weeks, dose escalation phase
[12] = Pat # 10, Ovarian, 625 mg every three weeks, dose escalation phase
[13] = Pat # 11, Uterine cancer, 625 mg every three weeks, expansion phase
[14] = Pat # 13, Ovarian cancer, 625 mg every three weeks, expansion phase
[15] = Pat # 14, Gall bladder cancer, 625 mg every three weeks, expansion phase
[16] = Pat # 15, Desmoplastic small round cell tumor (DSRCT), 625 mg every three weeks, expansion phase
[17] = Pat # 16, Colon cancer, 625 mg every three weeks, expansion phase
[18] = Pat # 17, Prostate adenocarcinoma, 625 mg every three weeks, expansion phase
[19] = Pat # 18, Ovarian cancer, 625 mg every three weeks, expansion phase
[20] = Pat # 19, Prostate adenocarcinoma, 625 mg every three weeks, expansion phase
[21] = Pat # 20, Uterine Cancer, 625 mg every three weeks, expansion phase

Structure (SMILES): Cc1ccccc1CN1C(=O)C2=C(CCN(Cc3ccccc3)C2)N2CCN=C12 [ONC201, 7-benzyl-4-(2-methylbenzyl)-2,4,6,7,8,9-hexahydroimidazo [1,2-a]pyrido[3,4-e]pyrimidin-5(1H)-one]
- only adverse event possibly attributed to ONC201, expansion phase ([1]; 10 patients, 625 mg every 3 weeks): vomiting in one patient
- only adverse event possibly attributed to ONC201, dose escalation phase ([1]; 10 patients, 125-625 mg every 3 weeks): low grade fever in one patient
- Adverse Events Grade 1 [1, 3]: Fever
- Adverse Events Grade 2-4 [1, 3]: 0
- Adverse Events Grade 1 [1, 4]: 0
- Adverse Events Grade 2-4 [1, 4]: 0
- Adverse Events Grade 1 [1, 5]: 0
- Adverse Events Grade 2-4 [1, 5]: 0
- Adverse Events Grade 1 [1, 6]: 0
- Adverse Events Grade 2-4 [1, 6]: 0
- Adverse Events Grade 1 [1, 7]: 0
- Adverse Events Grade 2-4 [1, 7]: 0
- Adverse Events Grade 1 [1, 8]: 0
- Adverse Events Grade 2-4 [1, 8]: 0
- Adverse Events Grade 1 [1, 9]: 0
- Adverse Events Grade 2-4 [1, 9]: 0
- Adverse Events Grade 1 [1, 10]: 0
- Adverse Events Grade 2-4 [1, 10]: 0
- Adverse Events Grade 1 [1, 11]: 0
- Adverse Events Grade 2-4 [1, 11]: 0
- Adverse Events Grade 1 [1, 12]: 0
- Adverse Events Grade 2-4 [1, 12]: 0
- Adverse Events Grade 1 [1, 13]: 0
- Adverse Events Grade 2-4 [1, 13]: 0
- Adverse Events Grade 1 ([1]; Pat # 12, Uterine cancer, 625 mg every three weeks, expansion phase): 0
- Adverse Events Grade 1 [1, 14]: Vomiting
- Adverse Events Grade 2-4 [1, 14]: 0
- Adverse Events Grade 1 [1, 15]: 0
- Adverse Events Grade 2-4 [1, 15]: 0
- Adverse Events Grade 1 [1, 16]: 0
- Adverse Events Grade 2-4 [1, 16]: 0
- Adverse Events Grade 1 [1, 17]: 0
- Adverse Events Grade 2-4 [1, 17]: 0
- Adverse Events Grade 1 [1, 18]: 0
- Adverse Events Grade 2-4 [1, 18]: 0
- Adverse Events Grade 1 [1, 19]: 0
- Adverse Events Grade 2-4 [1, 19]: 0
- Adverse Events Grade 1 [1, 20]: 0
- Adverse Events Grade 2-4 [1, 20]: 0
- Adverse Events Grade 1 [1, 21]: 0
- Adverse Events Grade 2-4 [1, 21]: 0
- drug-related adverse events ([1]; oral 125 to 625 mg every 3 weeks): No Grade >1 drug-related adverse events occurred
- recommended phase II dose (RP2D) ([1]; oral, once every 3 weeks): 625 mg
- Laboratory studies and physical exams ([1]; phase I patients): did not reveal any drug-related abnormalities
- cardiovascular assessments ([1]; phase I patients): no drug-related effects
- M30 Induction (>50%) ([2]; Pat # 1, NSCLC, 125 mg): No
- M30 Induction (>50%) ([2]; Pat # 2, Appendiceal cancer, 250 mg): No
- M30 Induction (>50%) ([2]; Pat # 3, Uterine cancer, 375 mg): Yes
- M30 Induction (>50%) ([2]; Pat # 4, Renal cancer, 500 mg): No
- M30 Induction (>50%) ([2]; Pat # 5, Breast cancer, 625 mg): Yes
- M30 Induction (>50%) ([2]; Pat # 6, Prostate adenocarcinoma, 625 mg): Yes
- M30 Induction (>50%) ([2]; Pat # 7, Small cell lung cancer, 625 mg): Yes
- M30 Induction (>50%) ([2]; Pat # 8, Colon adenocarcinoma, 625 mg): Yes
- M30 Induction (>50%) ([2]; Pat # 9, Spindle cell sarcoma, 625 mg): No
- M30 Induction (>50%) ([2]; Pat # 10, Ovarian, 625 mg): No
- number of patients with induction in the M30 assay ([2]; dose escalation phase, after a single dose, most often on day 21 post-treatment): Four
- increase in serum TRAIL (TRAIL; half of the patients, mostly peaked within the first 24 hours of drug administration): ~20%
- number of patients with serum TRAIL induction (TRAIL; serum soluble TRAIL): 2
